The text below walks through data of patent US10718770B2, “Methods for screening compounds for treating or preventing a viral infection or a virus-related condition” (ABIVAX, priority 2015, dated 2020).

The target in assay [1] is T1, CBC complex (CBP20 and CBP80) (Homo sapiens, UniProt P52298+Q09161).
T1 construct: made in house
T1 sequence (P52298 1-156): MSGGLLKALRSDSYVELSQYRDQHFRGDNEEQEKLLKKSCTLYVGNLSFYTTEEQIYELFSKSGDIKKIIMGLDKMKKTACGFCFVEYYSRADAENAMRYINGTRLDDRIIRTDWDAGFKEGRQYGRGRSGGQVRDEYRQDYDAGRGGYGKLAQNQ
T1 sequence (Q09161 1-790): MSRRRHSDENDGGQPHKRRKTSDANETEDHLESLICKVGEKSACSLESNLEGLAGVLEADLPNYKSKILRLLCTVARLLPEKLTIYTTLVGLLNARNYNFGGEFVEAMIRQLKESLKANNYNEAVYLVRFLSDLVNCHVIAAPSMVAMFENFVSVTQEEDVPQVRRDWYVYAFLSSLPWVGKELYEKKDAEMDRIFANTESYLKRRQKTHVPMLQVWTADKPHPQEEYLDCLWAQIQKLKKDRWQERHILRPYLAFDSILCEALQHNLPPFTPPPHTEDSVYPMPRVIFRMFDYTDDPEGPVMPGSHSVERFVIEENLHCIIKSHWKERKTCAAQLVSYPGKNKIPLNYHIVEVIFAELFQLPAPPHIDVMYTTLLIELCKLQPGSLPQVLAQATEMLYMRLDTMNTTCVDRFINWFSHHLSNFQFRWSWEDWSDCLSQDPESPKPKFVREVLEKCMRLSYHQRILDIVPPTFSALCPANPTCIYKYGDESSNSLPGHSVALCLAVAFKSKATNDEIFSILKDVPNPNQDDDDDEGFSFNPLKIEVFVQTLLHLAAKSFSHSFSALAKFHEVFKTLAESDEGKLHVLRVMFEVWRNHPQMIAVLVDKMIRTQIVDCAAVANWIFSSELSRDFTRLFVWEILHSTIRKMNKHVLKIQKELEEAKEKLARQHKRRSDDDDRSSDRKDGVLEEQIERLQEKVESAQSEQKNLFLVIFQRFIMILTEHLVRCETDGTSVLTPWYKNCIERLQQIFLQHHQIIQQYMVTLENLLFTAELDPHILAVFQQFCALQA
Kind of assay: UV crosslinking of purified recombinant CBP20 and CBP80 (CBC complex), SDS-PAGE / Western blot. Type of assay: binding. The settings on record: purified recombinant CBP20 and CBP80, after UV irradiation. Here is the method: FIG. 2. Compound 1 interacts with the CBC complex. Purified recombinant CBP20 and CBP80 proteins were incubated with increasing concentrations of Compound 1 (left panel) or Compound 1-N-glucuronide (right panel, Gluc) and treated for 30 minutes with UV light. […] Left panel: from left to right, incubation with 0.1 (lane 1), 1 (lane 2), 10 (lane 3) and 50 μM (lane 4) of Compound 1. Right panel: from left to right, incubation with 1 (lane 1), 10 (lane 2), 50 (lane 3), 100 μM (lane 4) and 200 μM (lane 5) of Compound 1-N-glucuronide.
FIG. 3. Compound 1 promotes the interaction of CBP20 with CBP80. A) Purified recombinant CBP20 and CBP80 proteins were incubated with the indicated concentrations of Compound 1-N-glucuronide and they were either untreated (lanes 1-3), treated during 15 min (lanes 4-6) or 30 min (lanes 7-9) with UV light. Proteins were analyzed by SDS-PAGE and stained with Coomassie blue. […] B) Recombinant human CBC was incubated with Compound 1-N-glucuronide and treated with UV for 15 min. After crosslinking the proteins were resolved in SDS-PAGE and stained with Coomassie blue (left panel). Stained proteins (Band 4, Band 5 and Band 7) were digested with trypsin and analysed by mass spectrometry. […]
Background: A western blot detects proteins with antibodies after separation by electrophoresis.

For a further assay, the target named is T2, Recombinant human CBC (Homo sapiens, UniProt P52298+Q09161).
T2 construct: made in house
T2 sequence (P52298 1-156): T1 sequence (P52298 1-156)
T2 sequence (Q09161 1-790): T1 sequence (Q09161 1-790)
The assay is described as follows: Gel-mobility shift assay: binding of capped RNA to the CBC complex. Particulars: native gel; Compound 1 5-50 μM, Compound 1-N-glucuronide 5-100 μM, m7GpppG 12 mM. The method, then:
FIG. 4. […] Recombinant human CBC was incubated with a capped RNA substrate and analyzed by native gel electrophoresis in order to resolve the different RNA and RNA-protein complexes: free RNA (lane 1), and CBC-RNA complexes (lanes 2-10) in the presence of 12 mM of m7GppG (lanes 10) or 5 μM, 10 μM or 50 μM of Compound 1 (lanes 2-4, respectively) or 5 μM, 10 μM, 50 μM or 100 μM of Compound 1-N-glucuronide ([…], respectively).
Gel-mobility shift assay in the presence of a m(7)GpppG cap analogue has been established according to the protocol described in Mazza et al. (Large-scale induced fit recognition of an m(7)GpppG cap analogue by the human nuclear cap-binding complex. EMBO J. 21, 5548-5557 (2002)).
Recombinant human CBC was incubated with a capped RNA substrate and analyzed by native gel electrophoresis in order to resolve the different RNA and RNA-protein complexes according to Mazza et al. (Large-scale induced fit recognition of an m(7)GpppG cap analogue by the human nuclear cap-binding complex. EMBO J. 21, 5548-5557 (2002).

Assay [2] has as its target SR protein splicing factor SRSF1 (Homo sapiens, UniProt Q07955). The settings on record: cited from earlier work.

SR protein splicing factor SRSF1, sequence (Q07955 whole entry): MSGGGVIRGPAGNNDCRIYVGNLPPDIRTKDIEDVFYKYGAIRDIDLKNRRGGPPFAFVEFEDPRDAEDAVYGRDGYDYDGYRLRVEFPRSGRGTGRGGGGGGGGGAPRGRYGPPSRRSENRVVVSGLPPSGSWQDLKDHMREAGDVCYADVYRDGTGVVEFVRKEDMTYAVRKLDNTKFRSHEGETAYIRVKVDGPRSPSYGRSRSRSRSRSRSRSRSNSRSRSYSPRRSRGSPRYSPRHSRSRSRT

As to `O=C(O)[C@H]1O[C@@H](N(c2ccc(OC(F)(F)F)cc2)c2ccc3cccc(Cl)c3n2)[C@H](O)[C@@H](O)[C@@H]1O` [Compound 1-N-glucuronide, 8-chloro-N-glucuronide-N-(4-(trifluoromethoxy)phenyl)quinolin-2-amine], the “covalent bridging (UV crosslinking) between CBP20 and CBP80” value in assay [1] was “promote UV crosslinking of CBP20 and CBP80”. Further, on Recombinant human CBC, the “competition for binding of capped RNA to the CBC complex” value is listed as “neither Compound 1 nor Compound 1-N-glucuronide interfere”.
As to `Cc1c2ccnc(Cl)c2cc2c3cn(C)ccc-3nc12` [IDC16, 10-chloro-2,6-dimethyl-2H-pyrido[3′,4′:4,5]pyrrolo[2,3-g]isoquinoline], in assay [2] (HIV-1), the “production of key viral proteins” value is “suppresses the production of key viral proteins”. The “splicing enhancer activity of SRSF1” value in assay [2] was “interfere with splicing enhancer activity”.
For the molecule `Cn1c[n+]([C@@H]2O[C@H](COP(=O)(O)OP(=O)([O-])OP(=O)(O)OC[C@H]3O[C@@H](n4cnc5c(=O)[nH]c(N)nc54)[C@H](O)[C@@H]3O)[C@@H](O)[C@H]2O)c2nc(N)[nH]c(=O)c21` [m^7GpppG, reference compound], the “competition for binding of capped RNA to the CBC complex” value at Recombinant human CBC is on record as “competed”.
